Laboratory results taken from the NIST ThermoML archive (doi:10.1016/j.jct.2016.10.023).

Assay: xn = mol fraction of the nth substance listed
Conditions: Constant-volume piezometry

CCCCC [pentane] + CCCO
Conditions | mass density [kg/m3]
433.15 K, 35839 kPa, Liquid, x1 = 0.5 | 609.23
433.15 K, 36095 kPa, Liquid, x1 = 0.2 | 661.31
433.15 K, 41420 kPa, Liquid, x1 = 0.8 | 572.89
437.15 K, 2040 kPa, Gas, x1 = 0.8 | 58.65
438.15 K, 1323 kPa, Gas, x1 = 0.5 | 30.1
438.15 K, 2052 kPa, Gas, x1 = 0.8 | 58.65
438.15 K, 2515 kPa, Liquid, x1 = 0.5 | 509.1
440.15 K, 2121 kPa, Liquid, x1 = 0.2 | 584.41
443.15 K, 781 kPa, Gas, x1 = 0.5 | 15.58
443.15 K, 1062 kPa, Gas, x1 = 0.8 | 22.61
443.15 K, 1353 kPa, Gas, x1 = 0.5 | 30.1
443.15 K, 1529 kPa, Gas, x1 = 0.8 | 36.83
443.15 K, 2108 kPa, Gas, x1 = 0.8 | 58.64
443.15 K, 3419 kPa, Liquid, x1 = 0.2 | 584.3
443.15 K, 4067 kPa, Liquid, x1 = 0.5 | 508.96
443.15 K, 5776 kPa, Liquid, x1 = 0.5 | 521.85
443.15 K, 6119 kPa, Liquid, x1 = 0.8 | 468.84
443.15 K, 7864 kPa, Liquid, x1 = 0.2 | 598.01
443.15 K, 11620 kPa, Liquid, x1 = 0.8 | 498.47
443.15 K, 13293 kPa, Liquid, x1 = 0.5 | 550.88
443.15 K, 15549 kPa, Liquid, x1 = 0.2 | 617.55
443.15 K, 19116 kPa, Liquid, x1 = 0.8 | 523.16
443.15 K, 24271 kPa, Liquid, x1 = 0.5 | 577.21
443.15 K, 29321 kPa, Liquid, x1 = 0.2 | 638.71
443.15 K, 31113 kPa, Liquid, x1 = 0.5 | 589.73
443.15 K, 32587 kPa, Liquid, x1 = 0.8 | 550.89
443.15 K, 37375 kPa, Liquid, x1 = 0.5 | 600.38
443.15 K, 43094 kPa, Liquid, x1 = 0.2 | 660.83
446.15 K, 2393 kPa, Gas, x1 = 0.8 | 74.06
447.15 K, 1740 kPa, Gas, x1 = 0.5 | 40.63
448.15 K, 1748 kPa, Gas, x1 = 0.5 | 40.63
448.15 K, 2548 kPa, Liquid, x1 = 0.9 | 408.95
448.15 K, 2624 kPa, Liquid, x1 = 0.8 | 419.92
449.15 K, 2796 kPa, Liquid, x1 = 0.8 | 419.9
451.15 K, 2529 kPa, Gas, x1 = 0.9 | 83.67
452.15 K, 2545 kPa, Gas, x1 = 0.9 | 83.66
453.15 K, 804 kPa, Gas, x1 = 0.5 | 15.57
453.15 K, 1101 kPa, Gas, x1 = 0.8 | 22.6
453.15 K, 1255 kPa, Gas, x1 = 0.2 | 25.01
453.15 K, 1405 kPa, Gas, x1 = 0.5 | 30.08
453.15 K, 1584 kPa, Gas, x1 = 0.8 | 36.81
453.15 K, 1789 kPa, Gas, x1 = 0.5 | 40.62
453.15 K, 2048 kPa, Gas, x1 = 0.5 | 51.26
453.15 K, 2206 kPa, Gas, x1 = 0.8 | 58.61
453.15 K, 2494 kPa, Gas, x1 = 0.8 | 74.04
453.15 K, 2562 kPa, Gas, x1 = 0.9 | 83.66
453.15 K, 3375 kPa, Liquid, x1 = 0.9 | 408.84
453.15 K, 3511 kPa, Liquid, x1 = 0.8 | 419.81
453.15 K, 7204 kPa, Liquid, x1 = 0.5 | 508.66
453.15 K, 7807 kPa, Liquid, x1 = 0.2 | 583.93
453.15 K, 8728 kPa, Liquid, x1 = 0.8 | 468.58
453.15 K, 9366 kPa, Liquid, x1 = 0.5 | 521.54
453.15 K, 12785 kPa, Liquid, x1 = 0.2 | 597.62
453.15 K, 14688 kPa, Liquid, x1 = 0.8 | 498.18
453.15 K, 17282 kPa, Liquid, x1 = 0.5 | 550.54
453.15 K, 21030 kPa, Liquid, x1 = 0.2 | 617.14
453.15 K, 22882 kPa, Liquid, x1 = 0.8 | 522.84
453.15 K, 28840 kPa, Liquid, x1 = 0.5 | 576.84
453.15 K, 34516 kPa, Liquid, x1 = 0.2 | 638.29
453.15 K, 37125 kPa, Liquid, x1 = 0.8 | 550.54
455.15 K, 2058 kPa, Gas, x1 = 0.5 | 51.26
455.15 K, 2617 kPa, Liquid, x1 = 0.5 | 469.97
459.15 K, 2107 kPa, Liquid, x1 = 0.2 | 549.17
459.25 K, 2109 kPa, Liquid, x1 = 0.2 | 549.17
460.15 K, 2449 kPa, Liquid, x1 = 0.2 | 549.14
461.15 K, 3036 kPa, Gas, x1 = 0.8 | 106.72
463.15 K, 825 kPa, Gas, x1 = 0.5 | 15.56

Liquid
Conditions | mass density [kg/m3]
438.95 K, x1 = 0.2 | 584.46
446.85 K, x1 = 0.8 | 419.95
447.55 K, x1 = 0.9 | 408.96
454.85 K, x1 = 0.5 | 469.97
458.15 K, x1 = 0.2 | 549.2
462.15 K, x1 = 0.5 | 452.82
462.85 K, x1 = 0.9 | 355.24
